Assay results: US20190218479A1, “Stabilized Liquid Peroxide Compositions” (Novozymes A/S, priority 2016, published 2019)

Columns and labels:
Format in all cases: physicochemical
[1] = target: T1, Subtilisin1 (Lederbergia lenta, UniProt P29600, M216S); assay: Residual activity of Subtilisin1 after storage in peroxide model detergents with or without subtilisin stabilizers (N,N-dimethylcasein/TNBS)
[2] = target: T1, Subtilisin1; assay: as above; conditions: model detergents with hydrogen peroxide, pH 7 and 9; summary of Example 2
Text: Chemicals used as buffers and substrates were commercial products of at least reagent grade. Subtilisin1 has the amino acid sequence as shown in SEQ ID NO: 2, which is a subtilisin having a M216 substitution according to the invention. Subtilisin2 has the amino acid sequence as shown in SEQ ID NO: 1, which is a reference subtilisin not covered by the invention. The stock solution of each subtilisin contains 4.4% w/w of active enzyme protein. Stabilizer1: Cbz-Gly-Ala-Tyr-H (C-terminal aldehyde), wherein Cbz is benzyloxycarbonyl; which is a subtilisin stabilizer according to the invention. When used in the examples below, Stabilizer1 was added to the subtilisin stock solution at a concentration of 0.28% w/w. Stabilizer2: Cbz-Gly-Ala-NHCH(CH2C6H4pOH)CH(OH)(OSO3)Na (hydrosulfite adduct of a C-terminal aldehyde) wherein Cbz is benzyloxycarbonyl; which is a subtilisin stabilizer according to the invention. When used in the examples below, Stabilizer2 was added to the subtilisin stock solution at a concentration of 0.35% w/w. Stabilizer3: MeOCO-Val-Ala-Leu-H (C-terminal aldehyde). When used in the examples below, Stabilizer3 was added to the subtilisin stock solution at a concentration of 0.28% w/w. Stabilizer4: 4-formyl-phenyl-boronic acid (4-FPBA); which is a reference protease stabilizer not covered by the invention. When used in the examples below, Stabilizer4 was added to the subtilisin stock solution at a concentration of 3.4% w/w.
(§1) The compositions were prepared as shown in the examples and samples stored in closed vials for storage. Residual activity was measured by comparing activity in a stored sample at the time of taken out of incubation without freezing and comparing activity to a freshly prepared sample without peroxide and dividing activity in the stored sample with activity in the fresh sample.
(§2) Activity analysis is performed by analysing protease activity by hydrolysis of N,N-dimethylcasein to produce a carboxylic acid and a primary amine compounds. The primary amines that are formed react, under alkaline conditions, with tri-nitrobenzenesulfonic acid (TNBS) to form a colored complex. The amount of colored complex that forms over the fixed reaction period at a constant temperature (530 seconds at 40° C.; complex absorbance is measured at 405 nm) is related to the amount of active protease present in the sample. The amount of colored product complex produced is compared to a standard curve based on known protease concentrations to calculate the amount of active protease in the detergent sample. The amount of protease activity at a specific time point is compared to the t=0 activity level to calculate the % active protease remaining.
This study examined Subtilisin1 stability in the presence of hydrogen peroxide, with and without subtilisin stabilizers (Stabilizer4 and Stabilizer2) in two different model detergents at pH 7 and 9.

[3] = Stability of Subtilisin1 and Subtilisin2 in the liquid peroxide composition of Table 1 (residual protease activity, N,N-dimethylcasein/TNBS); conditions: liquid peroxide composition in Table 1 (0.8% H2O2, pH 7.0), 4 weeks
Description: as §1, §2

[4] = Residual hydrogen peroxide after storage, permanganate titration; conditions: liquid peroxide composition in Table 1, 37° C., 4 weeks
Description: Residual hydrogen peroxide (H2O2) was measured by permanganate titration (reduction of potassium permanganate by hydrogen peroxide in sulfuric acid).

[5] = Subtilisin1 in “Mix Laundry” (Table 19, pH 7.5) no H2O2, no sodium salicylate, no polyDADMAC
[6] = Subtilisin1 in “Mix Laundry” (Table 19, pH 7.5) with 1% H2O2, with sodium salicylate, with polyDADMAC
[7] = Subtilisin1 in “NI pretreat” (Table 19, pH 7.0) with 1% H2O2, with sodium salicylate, with polyDADMAC
[8] = Subtilisin1 in “NI pretreat” (Table 19, pH 7.0) without H2O2, no sodium salicylate, no polyDADMAC

T1 sequence (P29600 whole entry M216S): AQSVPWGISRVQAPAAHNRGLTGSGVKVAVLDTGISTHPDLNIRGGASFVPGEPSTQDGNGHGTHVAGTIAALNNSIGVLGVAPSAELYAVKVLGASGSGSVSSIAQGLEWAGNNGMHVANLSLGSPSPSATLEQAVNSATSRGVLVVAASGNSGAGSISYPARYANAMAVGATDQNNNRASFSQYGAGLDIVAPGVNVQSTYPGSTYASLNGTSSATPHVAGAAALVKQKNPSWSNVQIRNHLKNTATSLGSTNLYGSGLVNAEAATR

| Molecule | Residual activity after storage for 2 weeks at 30° C. [1, 5] | Residual activity after storage for 2 weeks at 30° C. [1, 6] | Residual activity after storage for 2 weeks at 37° C. [1, 7] | Residual activity after storage for 2 weeks at 37° C. [1, 8] | stabilization of Subtilisin1, compared to Stabilizer4 [2] | % Subtilisin residual activity after 4 weeks ([3]; 22° C.) | % Subtilisin residual activity after 4 weeks ([3]; 30° C.) | % Subtilisin residual activity after 4 weeks ([3]; 37° C.) | Residual H2O2 after 4 weeks [4] |
| --- | --- | --- | --- | --- | --- | --- | --- | --- | --- |
| Cbz-Gly-Ala-NHCH(CH2C6H4pOH)CH(OH)(OSO3)Na [Stabilizer2] | 83% | 52% | 61% | 98% | much more effective stabilization | – | – | – | – |
| MeOCO-Val-Ala-Leu-H [Stabilizer3] | 83% | 60% | 64% | 95% | – | – | – | – | – |
| O=BOB(O)OB(O)OB=O [borax, reference compound] | 81% | 43% | 22% | 117% | – | – | – | – | – |
| O=Cc1ccc(B(O)O)cc1 [Stabilizer4, 4-formyl-phenyl-boronic acid, reference compound] | 86% | 20% | 11% | 129% | – | – | – | – | – |
| Subtilisin2: subtilisin with amino acid sequence SEQ ID NO: 1, reference subtilisin not covered by the invention (protein, listed as Bacillus lentus) AQSVPWGISRVQAPAAHNRGLTGSGVKVAVLDTGISTHPDLNIRGGASFVPGEPSTQDGNGHGTHVAGTIAALNNSIGVLGVAPSAELYAVKVLGASGSGSVSSIAQGLEWAGNNGMHVANLSLGSPSPSATLEQAVNSATSRGVLVVAASGNSGAGSISYPARYANAMAVGATDQNNNRASFSQYGAGLDIVAPGVNVQSTYPGSTYASLNGTSMATPHVAGAAALVKQKNPSWSNVQIRNHLKNTATSLGSTNLYGSGLVNAEAATR | – | – | – | – | – | 35% | 33% | 15% | 95.8% |
